Measurements published in paper PMC5513037, “Examining the influence of specificity ligands and ATP-competitive ligands on the overall effectiveness of bivalent kinase inhibitors” (Proteome Science, 2017).

What was measured:
Assay in all cases: KAM-matrix competition in K562 lysate;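 on 0.001 uM KAM: median log10 fold change of treatment over DMSO control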;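 on 0.01 uM KAM: median log10 fold change of treatment over DMSO control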;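 on 0.1 uM KAM: median log10 fold change of treatment over DMSO control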;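 on 1 uM KAM: median log10 fold change of treatment over DMSO control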;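 on 10 uM KAM: median log10 fold change of treatment over DMSO control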
Type in all cases: binding
NEK8 = biological target: T1, NEK8 (Homo sapiens, UniProt Q86SG6)
T1 construct: endogenous in cells; host or cells: K562
T1 sequence (Q86SG6 1-692): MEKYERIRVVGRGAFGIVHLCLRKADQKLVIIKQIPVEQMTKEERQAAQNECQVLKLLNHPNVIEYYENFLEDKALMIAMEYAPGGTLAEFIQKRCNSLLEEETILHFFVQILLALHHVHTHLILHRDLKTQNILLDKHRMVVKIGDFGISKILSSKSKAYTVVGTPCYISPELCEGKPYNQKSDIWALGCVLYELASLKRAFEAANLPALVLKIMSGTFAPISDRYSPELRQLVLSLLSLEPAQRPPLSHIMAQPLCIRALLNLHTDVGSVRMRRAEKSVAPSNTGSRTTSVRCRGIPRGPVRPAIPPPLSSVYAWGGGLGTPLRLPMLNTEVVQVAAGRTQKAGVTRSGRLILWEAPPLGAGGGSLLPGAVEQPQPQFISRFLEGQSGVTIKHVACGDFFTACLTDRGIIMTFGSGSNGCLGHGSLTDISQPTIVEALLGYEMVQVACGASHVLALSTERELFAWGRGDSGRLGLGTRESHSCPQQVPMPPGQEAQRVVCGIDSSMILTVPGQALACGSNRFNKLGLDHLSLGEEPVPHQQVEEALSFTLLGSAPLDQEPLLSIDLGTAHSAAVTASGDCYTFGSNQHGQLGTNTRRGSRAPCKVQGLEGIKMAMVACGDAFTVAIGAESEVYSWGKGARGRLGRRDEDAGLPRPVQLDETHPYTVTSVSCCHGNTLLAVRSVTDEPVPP
Method: (§1) Supplement 12953_2017_125_MOESM1_ESM.zip/MS_Supp Info.xlsx, sheet "KAM" | column: 10 uM KAM; 1 uM KAM; 0.1 uM KAM; 0.01 uM KAM; 0.001 uM KAM; RB50

BCR = biological target: T2, BCR (Homo sapiens, UniProt P00519+P11274)
T2 construct: ABL1 (fusion partner in BCR-ABL); endogenous in cells; host or cells: K562 lysate
T2 sequence (P11274+P00519 fused): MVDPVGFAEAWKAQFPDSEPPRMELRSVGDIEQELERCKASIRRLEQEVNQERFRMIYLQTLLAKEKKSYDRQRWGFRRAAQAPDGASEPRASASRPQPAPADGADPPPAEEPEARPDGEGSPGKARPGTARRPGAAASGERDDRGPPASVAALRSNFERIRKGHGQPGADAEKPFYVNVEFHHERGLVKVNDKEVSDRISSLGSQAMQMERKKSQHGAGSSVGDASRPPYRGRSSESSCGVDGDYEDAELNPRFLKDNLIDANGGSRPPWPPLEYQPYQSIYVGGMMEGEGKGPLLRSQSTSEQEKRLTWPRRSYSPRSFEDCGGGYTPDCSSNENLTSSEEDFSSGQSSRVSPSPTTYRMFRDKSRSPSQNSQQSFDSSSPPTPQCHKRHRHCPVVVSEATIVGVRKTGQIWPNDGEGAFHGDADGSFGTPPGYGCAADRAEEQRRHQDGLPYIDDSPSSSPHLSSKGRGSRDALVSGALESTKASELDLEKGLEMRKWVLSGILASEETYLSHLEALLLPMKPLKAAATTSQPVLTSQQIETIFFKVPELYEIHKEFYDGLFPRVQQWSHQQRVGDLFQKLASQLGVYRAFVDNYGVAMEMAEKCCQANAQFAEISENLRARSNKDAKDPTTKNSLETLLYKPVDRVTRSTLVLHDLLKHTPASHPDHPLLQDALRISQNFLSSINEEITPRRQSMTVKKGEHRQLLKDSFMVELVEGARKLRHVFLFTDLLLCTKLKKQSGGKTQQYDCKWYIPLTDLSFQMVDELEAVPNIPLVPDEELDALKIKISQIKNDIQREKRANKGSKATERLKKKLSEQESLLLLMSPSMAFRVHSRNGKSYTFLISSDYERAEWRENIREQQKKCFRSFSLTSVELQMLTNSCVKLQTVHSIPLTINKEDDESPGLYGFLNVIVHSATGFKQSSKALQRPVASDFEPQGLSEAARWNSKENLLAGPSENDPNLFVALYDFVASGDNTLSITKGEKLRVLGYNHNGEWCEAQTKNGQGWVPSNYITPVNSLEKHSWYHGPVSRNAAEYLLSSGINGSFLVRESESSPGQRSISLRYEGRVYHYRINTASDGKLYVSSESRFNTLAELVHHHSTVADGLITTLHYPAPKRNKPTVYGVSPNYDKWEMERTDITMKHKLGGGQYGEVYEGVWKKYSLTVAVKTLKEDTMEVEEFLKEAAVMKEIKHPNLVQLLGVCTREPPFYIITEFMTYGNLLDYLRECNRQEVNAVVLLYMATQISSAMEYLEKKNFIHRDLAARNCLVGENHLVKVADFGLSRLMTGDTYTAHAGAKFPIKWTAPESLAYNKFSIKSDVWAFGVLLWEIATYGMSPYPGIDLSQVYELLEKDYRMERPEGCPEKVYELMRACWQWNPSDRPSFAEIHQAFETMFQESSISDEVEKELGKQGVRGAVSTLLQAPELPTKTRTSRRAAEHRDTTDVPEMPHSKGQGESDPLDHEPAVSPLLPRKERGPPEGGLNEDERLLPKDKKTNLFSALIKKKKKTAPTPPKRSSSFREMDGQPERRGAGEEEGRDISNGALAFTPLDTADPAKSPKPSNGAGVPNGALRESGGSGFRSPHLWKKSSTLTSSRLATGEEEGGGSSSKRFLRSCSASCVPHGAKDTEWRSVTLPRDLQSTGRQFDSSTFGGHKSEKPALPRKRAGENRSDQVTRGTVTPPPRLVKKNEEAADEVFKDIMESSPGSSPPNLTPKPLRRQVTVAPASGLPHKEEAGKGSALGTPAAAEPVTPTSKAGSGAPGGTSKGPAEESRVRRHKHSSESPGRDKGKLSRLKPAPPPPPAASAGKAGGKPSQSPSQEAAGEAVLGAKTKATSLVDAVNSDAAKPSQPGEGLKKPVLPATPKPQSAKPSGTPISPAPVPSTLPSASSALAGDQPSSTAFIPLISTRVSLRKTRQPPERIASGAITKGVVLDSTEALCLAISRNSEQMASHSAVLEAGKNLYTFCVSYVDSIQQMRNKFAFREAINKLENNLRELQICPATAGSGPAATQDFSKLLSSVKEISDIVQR
Method: as §1

IGF1R = biological target: T3, IGF1R (Homo sapiens, UniProt P08069)
T3 construct: K562 cell pellets were thawed on ice and resuspended in cold Lysis buffer; endogenous in cells; host or cells: K562
T3 sequence (P08069 741-1367 limits assumed): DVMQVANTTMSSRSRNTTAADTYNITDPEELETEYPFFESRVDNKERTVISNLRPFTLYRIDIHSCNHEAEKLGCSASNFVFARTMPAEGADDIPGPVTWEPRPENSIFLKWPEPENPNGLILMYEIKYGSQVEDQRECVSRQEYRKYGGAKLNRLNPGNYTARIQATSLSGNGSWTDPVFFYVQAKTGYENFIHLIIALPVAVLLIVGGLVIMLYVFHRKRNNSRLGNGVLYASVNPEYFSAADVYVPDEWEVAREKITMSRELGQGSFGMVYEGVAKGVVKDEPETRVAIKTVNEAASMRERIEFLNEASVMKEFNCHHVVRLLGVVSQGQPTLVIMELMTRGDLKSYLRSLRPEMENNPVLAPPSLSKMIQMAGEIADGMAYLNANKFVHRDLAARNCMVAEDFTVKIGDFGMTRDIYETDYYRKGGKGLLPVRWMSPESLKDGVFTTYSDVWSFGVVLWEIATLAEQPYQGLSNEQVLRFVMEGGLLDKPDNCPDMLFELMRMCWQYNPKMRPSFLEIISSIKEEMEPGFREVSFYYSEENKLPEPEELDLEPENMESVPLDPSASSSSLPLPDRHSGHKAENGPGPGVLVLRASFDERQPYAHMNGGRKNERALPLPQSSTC
T3 sequence (P08069 31-736 partner limits assumed): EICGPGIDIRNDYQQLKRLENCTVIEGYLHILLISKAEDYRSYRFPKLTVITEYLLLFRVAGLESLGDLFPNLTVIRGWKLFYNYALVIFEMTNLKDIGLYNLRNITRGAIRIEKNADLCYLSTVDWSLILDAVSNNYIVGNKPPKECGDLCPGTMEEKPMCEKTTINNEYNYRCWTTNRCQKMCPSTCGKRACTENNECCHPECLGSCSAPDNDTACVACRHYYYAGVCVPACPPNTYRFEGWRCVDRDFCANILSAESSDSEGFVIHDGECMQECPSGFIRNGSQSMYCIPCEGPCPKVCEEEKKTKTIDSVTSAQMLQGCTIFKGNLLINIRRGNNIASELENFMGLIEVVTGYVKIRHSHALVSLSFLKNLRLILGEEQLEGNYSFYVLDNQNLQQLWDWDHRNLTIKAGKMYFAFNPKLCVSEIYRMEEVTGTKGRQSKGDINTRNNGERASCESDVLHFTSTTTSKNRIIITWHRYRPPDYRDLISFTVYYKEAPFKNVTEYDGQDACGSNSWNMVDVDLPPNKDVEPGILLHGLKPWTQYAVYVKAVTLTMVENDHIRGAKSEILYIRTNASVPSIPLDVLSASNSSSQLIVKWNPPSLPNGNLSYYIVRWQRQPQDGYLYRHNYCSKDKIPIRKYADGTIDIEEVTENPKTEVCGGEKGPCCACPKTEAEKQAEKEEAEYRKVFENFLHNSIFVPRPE
Method: as §1

BMPR1A = biological target: T4, BMPR1A (Homo sapiens, UniProt P36894)
T4 construct: endogenous in cells; host or cells: K562
T4 sequence (P36894 24-532): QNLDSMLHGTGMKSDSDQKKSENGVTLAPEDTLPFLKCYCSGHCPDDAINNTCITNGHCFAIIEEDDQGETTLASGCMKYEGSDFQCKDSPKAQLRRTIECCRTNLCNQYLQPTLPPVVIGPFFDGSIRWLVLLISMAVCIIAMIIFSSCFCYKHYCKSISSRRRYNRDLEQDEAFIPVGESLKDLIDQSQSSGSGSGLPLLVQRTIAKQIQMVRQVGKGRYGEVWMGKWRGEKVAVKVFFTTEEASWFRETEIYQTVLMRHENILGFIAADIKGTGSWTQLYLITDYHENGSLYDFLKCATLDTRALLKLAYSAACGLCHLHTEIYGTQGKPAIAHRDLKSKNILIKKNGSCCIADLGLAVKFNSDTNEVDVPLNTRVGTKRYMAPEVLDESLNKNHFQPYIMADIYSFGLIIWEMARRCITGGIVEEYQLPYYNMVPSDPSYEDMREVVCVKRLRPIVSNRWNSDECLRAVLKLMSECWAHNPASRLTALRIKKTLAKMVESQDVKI
Method: as §1

CAMK2G = biological target: T5, CAMK2G (Homo sapiens, UniProt Q13555);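 on 0.001 uM KAM: median log10 fold change of treatment over DMSO control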;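 on 0.01 uM KAM: median log10 fold change of treatment over DMSO control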;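 on 0.1 uM KAM: median log10 fold change of treatment over DMSO control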;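 on 1 uM KAM: median log10 fold change of treatment over DMSO control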;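 on 10 uM KAM: median log10 fold change of treatment over DMSO control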
T5 construct: endogenous in cells; host or cells: K562
T5 sequence (Q13555 whole entry): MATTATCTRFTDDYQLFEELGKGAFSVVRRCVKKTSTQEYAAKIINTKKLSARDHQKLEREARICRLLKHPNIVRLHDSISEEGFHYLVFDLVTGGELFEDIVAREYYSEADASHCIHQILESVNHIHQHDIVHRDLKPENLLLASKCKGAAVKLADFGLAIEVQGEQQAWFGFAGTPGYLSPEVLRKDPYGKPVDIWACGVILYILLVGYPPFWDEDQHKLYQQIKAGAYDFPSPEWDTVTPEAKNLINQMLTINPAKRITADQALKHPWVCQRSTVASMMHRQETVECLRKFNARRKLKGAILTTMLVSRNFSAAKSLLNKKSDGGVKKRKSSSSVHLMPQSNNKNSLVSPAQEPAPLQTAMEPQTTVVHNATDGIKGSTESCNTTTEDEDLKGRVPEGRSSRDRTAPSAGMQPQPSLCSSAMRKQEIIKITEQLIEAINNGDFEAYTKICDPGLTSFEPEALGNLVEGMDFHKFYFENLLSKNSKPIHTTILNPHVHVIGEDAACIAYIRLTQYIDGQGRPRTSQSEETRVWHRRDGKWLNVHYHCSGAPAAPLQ
Method: as §1

CAMK1 = biological target: T6, CAMK1 (Homo sapiens, UniProt Q14012);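 on 0.001 uM KAM: median log10 fold change of treatment over DMSO control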;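 on 0.01 uM KAM: median log10 fold change of treatment over DMSO control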;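 on 0.1 uM KAM: median log10 fold change of treatment over DMSO control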;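 on 1 uM KAM: median log10 fold change of treatment over DMSO control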;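 on 10 uM KAM: median log10 fold change of treatment over DMSO control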
T6 construct: endogenous in cells; host or cells: K562
T6 sequence (Q14012 whole entry): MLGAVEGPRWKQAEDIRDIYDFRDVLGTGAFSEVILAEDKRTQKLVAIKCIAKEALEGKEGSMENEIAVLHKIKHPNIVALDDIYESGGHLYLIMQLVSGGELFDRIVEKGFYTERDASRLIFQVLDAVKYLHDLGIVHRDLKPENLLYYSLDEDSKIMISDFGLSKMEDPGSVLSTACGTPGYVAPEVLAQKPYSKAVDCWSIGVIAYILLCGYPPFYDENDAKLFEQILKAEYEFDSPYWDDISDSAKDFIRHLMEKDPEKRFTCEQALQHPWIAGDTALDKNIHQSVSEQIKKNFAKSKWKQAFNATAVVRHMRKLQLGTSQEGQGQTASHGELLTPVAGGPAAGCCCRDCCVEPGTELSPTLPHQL
Method: as §1

MYO3A = biological target: T7, MYO3A (Homo sapiens, UniProt Q8NEV4);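 on 0.001 uM KAM: median log10 fold change of treatment over DMSO control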;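 on 0.01 uM KAM: median log10 fold change of treatment over DMSO control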;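 on 0.1 uM KAM: median log10 fold change of treatment over DMSO control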;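 on 1 uM KAM: median log10 fold change of treatment over DMSO control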;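 on 10 uM KAM: median log10 fold change of treatment over DMSO control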
T7 construct: endogenous in cells; host or cells: K562
Method: as §1

TLK1 = biological target: T8, TLK1 (Homo sapiens, UniProt Q9UKI8);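 on 0.001 uM KAM: median log10 fold change of treatment over DMSO control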;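 on 0.01 uM KAM: median log10 fold change of treatment over DMSO control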;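 on 0.1 uM KAM: median log10 fold change of treatment over DMSO control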;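 on 1 uM KAM: median log10 fold change of treatment over DMSO control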;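 on 10 uM KAM: median log10 fold change of treatment over DMSO control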
T8 construct: endogenous in cells; host or cells: K562 cells (combined S0.8 and P0.8 lysate)
T8 sequence (Q9UKI8 1-766): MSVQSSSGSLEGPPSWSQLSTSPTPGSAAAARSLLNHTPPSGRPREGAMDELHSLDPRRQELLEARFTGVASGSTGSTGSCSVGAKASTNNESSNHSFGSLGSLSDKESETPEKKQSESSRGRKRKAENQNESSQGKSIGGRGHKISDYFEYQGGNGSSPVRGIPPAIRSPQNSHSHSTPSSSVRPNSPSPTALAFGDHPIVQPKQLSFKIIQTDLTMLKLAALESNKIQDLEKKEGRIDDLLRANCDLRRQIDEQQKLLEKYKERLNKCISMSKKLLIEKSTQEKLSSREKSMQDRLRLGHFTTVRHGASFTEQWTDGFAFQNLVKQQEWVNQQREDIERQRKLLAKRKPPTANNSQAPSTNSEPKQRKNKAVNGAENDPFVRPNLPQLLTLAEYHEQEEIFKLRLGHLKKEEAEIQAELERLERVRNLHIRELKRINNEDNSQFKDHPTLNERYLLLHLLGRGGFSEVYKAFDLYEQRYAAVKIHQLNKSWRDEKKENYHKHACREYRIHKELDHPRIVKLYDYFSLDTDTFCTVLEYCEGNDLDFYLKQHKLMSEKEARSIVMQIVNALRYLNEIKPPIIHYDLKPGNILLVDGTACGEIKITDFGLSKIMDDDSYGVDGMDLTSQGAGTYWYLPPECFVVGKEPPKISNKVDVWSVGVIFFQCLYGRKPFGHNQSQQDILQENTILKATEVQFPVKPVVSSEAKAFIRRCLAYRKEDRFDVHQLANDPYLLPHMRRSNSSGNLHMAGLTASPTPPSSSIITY
Method: as §1

[1] = read-out: RB50 (the source's name)
[2] = KAM 0.001-10 uM, read-out: RB50 (the source's name)

N#CCc1ccc(Nc2nc(NCCCN)cc(Nc3cc(C4CC4)[nH]n3)n2)cc1 [KAM]
median Log10 fold change (NEK8; 0.001 uM KAM): -0.1269 | median Log10 fold change (NEK8; 0.01 uM KAM): -0.1123 | median Log10 fold change (NEK8; 0.1 uM KAM): -0.2566 | median Log10 fold change (NEK8; 1 uM KAM): -0.2815 | median Log10 fold change (NEK8; 10 uM KAM): -0.455 | IC50 (NEK8; [1]): 0.861 µM | median Log10 fold change (BCR; 0.001 uM KAM): -0.02555 | median Log10 fold change (BCR; 0.01 uM KAM): -0.005343 | median Log10 fold change (BCR; 0.1 uM KAM): -0.1851 | median Log10 fold change (BCR; 1 uM KAM): -0.427 | median Log10 fold change (BCR; 10 uM KAM): -0.5622 | median Log10 fold change (IGF1R; 0.001 uM KAM): -0.01905 | median Log10 fold change (IGF1R; 0.01 uM KAM): -0.03637 | median Log10 fold change (IGF1R; 0.1 uM KAM): -0.1832 | median Log10 fold change (IGF1R; 1 uM KAM): -0.3556 | median Log10 fold change (IGF1R; 10 uM KAM): -0.4489 | IC50 (IGF1R; [1]): 0.696 µM | median Log10 fold change (BMPR1A; 0.001 uM KAM): -0.03052 | median Log10 fold change (BMPR1A; 0.01 uM KAM): -0.01848 | median Log10 fold change (BMPR1A; 0.1 uM KAM): -0.1062 | median Log10 fold change (BMPR1A; 1 uM KAM): -0.2213 | median Log10 fold change (BMPR1A; 10 uM KAM): -0.3941 | IC50 (BMPR1A; [1]): 2.7 µM | IC50 (CAMK2G; [2]): > 10 µM | 0.001 uM KAM (CAMK2G; relative to 0 uM KAM = 0): -0.0014 | 0.01 uM KAM (CAMK2G; relative to 0 uM KAM = 0): 0.01571 | 0.1 uM KAM (CAMK2G; relative to 0 uM KAM = 0): -0.03365 | 1 uM KAM (CAMK2G; relative to 0 uM KAM = 0): -0.07588 | 10 uM KAM (CAMK2G; relative to 0 uM KAM = 0): -0.2109 | IC50 (CAMK1; [2]): 6.47 µM | 0.001 uM KAM (CAMK1; relative to 0 uM KAM = 0): -0.0406 | 0.01 uM KAM (CAMK1; relative to 0 uM KAM = 0): 0.01937 | 0.1 uM KAM (CAMK1; relative to 0 uM KAM = 0): -0.06624 | 1 uM KAM (CAMK1; relative to 0 uM KAM = 0): -0.1636 | 10 uM KAM (CAMK1; relative to 0 uM KAM = 0): -0.3114 | IC50 (MYO3A; [2]): > 10 µM | 0.001 uM KAM (MYO3A; relative to 0 uM KAM = 0): -0.00983 | 0.01 uM KAM (MYO3A; relative to 0 uM KAM = 0): 0.0682 | 0.1 uM KAM (MYO3A; relative to 0 uM KAM = 0): 0.01204 | 1 uM KAM (MYO3A; relative to 0 uM KAM = 0): 0.07454 | 10 uM KAM (MYO3A; relative to 0 uM KAM = 0): -0.0706 | IC50 (TLK1; [2]): > 10 µM | 0.001 uM KAM (TLK1; relative to 0 uM KAM = 0): -0.0133 | 0.01 uM KAM (TLK1; relative to 0 uM KAM = 0): 0.001518 | 0.1 uM KAM (TLK1; relative to 0 uM KAM = 0): -0.1562 | 1 uM KAM (TLK1; relative to 0 uM KAM = 0): -0.3373 | 10 uM KAM (TLK1; relative to 0 uM KAM = 0): -0.1561
